Experiments:
[1] = target: ALK I1171N/D1203N (Homo sapiens (Human), UniProt Q9UM73, D1203N/I1171N); experiment: Biochemical kinase assay, ALK I1171N/D1203N; conditions: apparent inhibitory constant, kinase domain, Morrison equation; read-out: ALK-I1171N-D1203N Ki^app
Method: (§1) First, 250 nL of compound dissolved in DMSO (100-fold of the desired concentration) was dispensed into a 384-well plate. A 12.5 μL substrate solution containing ATP (2 mM) and fluorogenic phosphorylation substrate AQT0101 ([…] for ALK and ROS, AssayQuant) or AQT0104 (26 μM for TRKB, AssayQuant) in buffer (50 mM HEPES pH 7.5, […], 0.5 mM EGTA, 10 mM MgCl2) was added and mixed thoroughly. Then, a 12.5 μL kinase solution containing ALK (1.5 nM, Carna, 08-518), ALK I1171N/D1203N (4 nM, SignalChem, custom-made), ROS1 (0.6 nM, Carma, 08-163), ROS1-G2032R (0.5 nM, SignalChem, R14-121BG), or TRKB-wt (1.5 nM, SignalChem, N17-11G) kinase domains in buffer ([…] pH 7.5, 0.01% Brij-[…], 0.4 mg/mL BSA, 0.5 mM EGTA, and 10 mM MgCl2) was added and mixed thoroughly. The plate was sealed and read by SpectraMax Paradigm at λ=485 nm every 2 minutes for 120 minutes at 30° C. Initial rates of reaction (v) were calculated from the change in fluorescence intensity over time during the initial, linear portion of the reaction. Finally, apparent inhibitory constants (Ki^app) were determined from regression of v and I (inhibitor concentration) to Morrison Equation (E=enzyme concentration): […]
(§2) Compound potency can be interpreted by binning Ki^app values against the targets: bin A for high potency, Ki^app<50 nM; bin B for medium potency, 50 nM≤Ki^app<500 nM; and bin C for low potency, Ki^app≥500 nM. […] “nd” means not determined.

[2] = target: TRKB-wt (Homo sapiens (Human), UniProt Q16620); experiment: Biochemical kinase assay, TRKB-wt; conditions: apparent inhibitory constant, kinase domain, Morrison equation; read-out: TRKB-wt Ki^app
Sequence of TRKB-wt (Q16620 538-807): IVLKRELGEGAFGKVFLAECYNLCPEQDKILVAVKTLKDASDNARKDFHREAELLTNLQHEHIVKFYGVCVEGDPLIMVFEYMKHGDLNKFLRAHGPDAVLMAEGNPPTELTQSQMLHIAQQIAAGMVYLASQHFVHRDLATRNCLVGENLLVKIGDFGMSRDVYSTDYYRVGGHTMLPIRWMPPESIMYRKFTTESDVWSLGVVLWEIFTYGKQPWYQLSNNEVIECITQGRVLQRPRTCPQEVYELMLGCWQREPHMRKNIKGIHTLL
Method: as §1, §2

[3] = target: Ba/F3 EML4-ALK v1 I1171N/D1203N (Homo sapiens (Human), UniProt Q9HC35+Q9UM73, D1203N/I1171N); experiment: Ba/F3 cell proliferation assay, EML4-ALK v1 I1171N/D1203N; assay type: cell-based; conditions: for IC50: Ba/F3 stable cells, 72 hours, CellTiter-Glo; for ETV6-TRKB / EML4-ALK v1 I1171N/D1203N / Selectivity for Ba/F3 EML4-ALK v1 I1171N-D1203N IC50 over Ba/F3 ETV6-TRKB IC50: TRKB selectivity, ratio of Ba/F3 IC50 values; for Selectivity for Ba/F3 EML4-ALK v1 I1171N-D1203N IC50 over Ba/F3 ETV6-TRKB IC50: Table 6 bins
Sequence of Ba/F3 EML4-ALK v1 I1171N/D1203N (Q9UM73 other isoform, or with tags, fused parts or gaps I1171N/D1203N): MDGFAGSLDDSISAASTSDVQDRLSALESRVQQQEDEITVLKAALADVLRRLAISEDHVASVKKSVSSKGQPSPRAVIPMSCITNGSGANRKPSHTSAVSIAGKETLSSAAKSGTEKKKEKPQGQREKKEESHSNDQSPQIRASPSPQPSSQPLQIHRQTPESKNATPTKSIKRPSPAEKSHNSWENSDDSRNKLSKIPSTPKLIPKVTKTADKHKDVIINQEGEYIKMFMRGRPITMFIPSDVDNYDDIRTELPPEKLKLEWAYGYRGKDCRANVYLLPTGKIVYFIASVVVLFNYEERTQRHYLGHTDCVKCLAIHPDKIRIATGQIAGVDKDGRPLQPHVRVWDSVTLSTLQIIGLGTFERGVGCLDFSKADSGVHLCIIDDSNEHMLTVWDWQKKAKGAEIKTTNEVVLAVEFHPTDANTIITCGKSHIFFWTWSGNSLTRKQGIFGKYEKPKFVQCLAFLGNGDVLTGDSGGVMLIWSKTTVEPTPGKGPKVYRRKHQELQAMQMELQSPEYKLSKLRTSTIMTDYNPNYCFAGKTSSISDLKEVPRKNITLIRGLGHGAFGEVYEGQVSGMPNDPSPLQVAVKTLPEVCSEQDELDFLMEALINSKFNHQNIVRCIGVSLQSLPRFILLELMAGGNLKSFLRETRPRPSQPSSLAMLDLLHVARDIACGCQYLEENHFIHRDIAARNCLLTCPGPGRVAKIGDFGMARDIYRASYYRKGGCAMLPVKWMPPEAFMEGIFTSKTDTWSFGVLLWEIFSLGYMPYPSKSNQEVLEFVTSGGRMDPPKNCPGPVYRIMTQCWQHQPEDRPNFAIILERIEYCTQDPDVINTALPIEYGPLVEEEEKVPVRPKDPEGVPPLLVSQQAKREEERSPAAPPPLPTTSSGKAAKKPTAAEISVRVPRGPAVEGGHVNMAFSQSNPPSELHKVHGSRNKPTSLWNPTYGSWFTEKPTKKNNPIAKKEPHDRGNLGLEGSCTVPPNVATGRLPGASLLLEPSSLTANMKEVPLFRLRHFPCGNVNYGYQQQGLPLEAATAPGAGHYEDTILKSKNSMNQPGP
Outline: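 Ba/F3 cells made IL-3-independent by retroviral EML4-ALK v1 I1171N/D1203N and selected with puromycin, then treated with 3-fold compound dilutions for 72 h. Viability by CellTiter-Glo luminescence; IC50 from four-parameter logistic fit.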

[4] = target: Ba/F3 ETV6-TRKB (Homo sapiens, UniProt Q16620); experiment: Ba/F3 cell proliferation assay, ETV6-TRKB; assay type: cell-based; conditions: Ba/F3 stable cells, 72 hours, CellTiter-Glo; read-out: ETV6-TRKB IC50
Sequence of Ba/F3 ETV6-TRKB (Q16620 32-822 limits assumed, change not shown): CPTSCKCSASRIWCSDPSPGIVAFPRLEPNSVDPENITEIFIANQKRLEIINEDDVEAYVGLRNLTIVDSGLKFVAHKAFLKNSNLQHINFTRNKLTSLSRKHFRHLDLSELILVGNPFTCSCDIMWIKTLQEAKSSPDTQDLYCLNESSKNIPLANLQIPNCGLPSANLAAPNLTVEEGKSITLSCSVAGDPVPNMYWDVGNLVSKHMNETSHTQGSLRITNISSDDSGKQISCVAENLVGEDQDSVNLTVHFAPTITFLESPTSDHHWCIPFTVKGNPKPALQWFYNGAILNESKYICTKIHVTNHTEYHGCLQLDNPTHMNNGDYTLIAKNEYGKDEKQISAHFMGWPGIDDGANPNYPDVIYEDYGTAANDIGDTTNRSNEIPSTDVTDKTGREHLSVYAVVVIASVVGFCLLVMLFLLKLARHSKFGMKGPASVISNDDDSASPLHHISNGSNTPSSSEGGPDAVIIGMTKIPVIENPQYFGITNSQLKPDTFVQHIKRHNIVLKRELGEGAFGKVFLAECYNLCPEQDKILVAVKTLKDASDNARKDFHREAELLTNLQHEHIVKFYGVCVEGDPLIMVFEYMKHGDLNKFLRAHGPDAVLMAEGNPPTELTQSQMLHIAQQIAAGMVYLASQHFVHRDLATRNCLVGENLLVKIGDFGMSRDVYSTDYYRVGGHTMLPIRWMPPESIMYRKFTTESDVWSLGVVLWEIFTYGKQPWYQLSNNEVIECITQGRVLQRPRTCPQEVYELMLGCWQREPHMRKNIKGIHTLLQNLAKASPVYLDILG
Outline: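 Ba/F3 cells retrovirally transduced with ETV6-TRKB and selected for IL-3-independent growth with puromycin were treated with 3-fold compound dilutions for 72 h. Viability read by CellTiter-Glo luminescence; IC50 from percent inhibition by four-parameter logistic fit.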

Sequence of ALK I1171N/D1203N (Q9UM73 1116-1392 I1171N/D1203N): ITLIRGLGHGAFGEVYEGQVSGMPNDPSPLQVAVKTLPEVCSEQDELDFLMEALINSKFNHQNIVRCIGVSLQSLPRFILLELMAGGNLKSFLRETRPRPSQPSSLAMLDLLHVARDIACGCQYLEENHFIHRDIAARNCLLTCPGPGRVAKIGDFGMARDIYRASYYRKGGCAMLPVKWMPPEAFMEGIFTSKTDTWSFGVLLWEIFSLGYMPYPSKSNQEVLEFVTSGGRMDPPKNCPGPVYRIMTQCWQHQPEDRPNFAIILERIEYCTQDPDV

SMILES | Ki [1] | Ki [2] | IC50 [3] | IC50 [4] | ETV6-TRKB / EML4-ALK v1 I1171N/D1203N [3] | Selectivity for Ba/F3 EML4-ALK v1 I1171N-D1203N IC50 over Ba/F3 ETV6-TRKB IC50 [3]
C[C@H]1Oc2cc(cnc2N)-c2c(c(C(=O)N3CC(F)(F)C3)nn2CC2CC2)Cc2cn(C)nc2-c2ccc(F)cc21 [Example 13, {(R)-22-amino-3-(cyclopropylmethyl)-16-fluoro-10-methyl-19-methyl-20-oxa-3,4,10,11,23-pentaazapentacyclo[19.3.1.0^2,^6.0^8,^12.0^13,^18]pentacosa-1(24),2(6),4,8,11,13,15, 17,21(25),22-decaen-5-yl}(3,3-difluoro-1-azetidinyl)methanone] | < 50 nM | 50 to 500 nM | 50 to 500 nM | > 500 nM | C (bin C for moderate selectivity, ratio≥1 but<10) | 
Cc1cc2n(n1)-c1ccc(F)cc1[C@@H](C)Oc1cc(cnc1N)-c1c(C#N)nn(C)c1C2=O [Example 18, (R)-22-amino-16-fluoro-5-methyl-10,19-dimethyl-7-oxo-20-oxa-4,5,11,12,23-pentaazapentacyclo[19.3.1.0^2,^6.0^8,^12.0^13,^18]pentacosa-1(24),2(6),3,8,10,13,15,17,21(25),22-decaene-3-carbonitrile] | < 50 nM | 50 to 500 nM | 50 to 500 nM | > 500 nM | C (bin C for moderate selectivity, ratio≥1 but<10) | CC (bin CC for the selectivity with the ratio≥5 but<10)
C[C@H]1Oc2cc(cnc2N)-c2c(c(C(N)=O)nn2C2CCC2)Cc2cn(C)nc2-c2ccc(F)cc21 [Example 30, (R)-22-amino-3-cyclobutyl-16-fluoro-10-methyl-19-methyl-20-oxa-3,4,10,11,23-pentaazapentacyclo[19.3.1.0^2,^6.0^8,^12.0^13,^18] pentacosa-1(24),2(6),4,8,11,13,15,17,21(25),22-decaene-5-carboxamide] | < 50 nM | 50 to 500 nM | 50 to 500 nM | > 500 nM | B (bin B for high selectivity, ratio≥10-fold but<30) | 
CSc1nn(CC2CC2)c2c1Cc1cn(C)nc1-c1ccc(F)cc1[C@@H](C)Oc1cc-2cnc1N [Example 56, (R)-3-(cyclopropylmethyl)-16-fluoro-10-methyl-19-methyl-5-(methylthio)-20-oxa-3,4,10,11,23-pentaazapentacyclo[19.3.1.0^2,^6.0^8,^12.0^13,^18]pentacosa-1(25),2(6),4,8,11,13,15,17,21,23-decaen-22-ylamine] | 50 to 500 nM | ≥ 500 nM | 50 to 500 nM | > 500 nM | C (bin C for moderate selectivity, ratio≥1 but<10) | 
CCn1nc(C(=O)N(C)C)c2c1-c1cnc(N)c(c1)O[C@H](C)c1cc(F)ccc1-c1ncccc1C2 [Example 43, N,N-dimethyl-(R)-23-amino-3-ethyl-17-fluoro-20-methyl-21-oxa-3,4,12,24-tetraazapentacyclo[20.3.1.0^2,^6.0^8,^13.0^14,^19]hexacosa-1(25),2(6),4,8(13),9,11,14,16,18,22(26),23-undecaene-5-carboxamide] | < 50 nM | < 50 nM | 0.1 to 50 nM | 0.1 to 50 nM | B (bin B for high selectivity, ratio≥10-fold but<30) | BB (bin BB for the selectivity with the ratio≥10-fold but<30)
CCOC(=O)c1nn(CC2CC2)c2c1Oc1cccnc1-c1ccc(F)cc1[C@@H](C)Oc1cc-2cnc1N [Example 55, ethyl (20R)-23-amino-3-(cyclopropylmethyl)-17-fluoro-20-methyl-7,21-dioxa-3,4,12,24-tetraazapentacyclo[20.3.1.0^2,^6.0^8,^13.0^14,^19]hexacosa-1(25),2(6),4,8(13),9,11,14,16,18,22(26),23-undecaene-5-carboxylate] | < 50 nM | ≥ 500 nM | 50 to 500 nM | > 500 nM | B (bin B for high selectivity, ratio≥10-fold but<30) | 

Now from value to molecule, other results behind:

Ki [1] | Ki [2] | IC50 [3] | IC50 [4] | SMILES | ETV6-TRKB / EML4-ALK v1 I1171N/D1203N [3] | Selectivity for Ba/F3 EML4-ALK v1 I1171N-D1203N IC50 over Ba/F3 ETV6-TRKB IC50 [3]
< 50 nM | ≥ 500 nM | 50 to 500 nM | > 500 nM | Cc1cc2n(n1)-c1ccc(F)cc1[C@@H](C)Oc1cc(cnc1N)-c1c(c(C(=O)N(C)C)nn1CC1CC1)C2 [Example 42, N,N-dimethyl-(R)-22-amino-3-(cyclopropylmethyl)-16-fluoro-10,19-dimethyl-20-oxa-3,4,11,12,23-pentaazapentacyclo[19.3.1.0^2,^6.0^8,^12.0^13,^18]pentacosa-1(24),2(6),4,8,10,13,15,17,21(25),22-decaene-5-carboxamide] | A (bin A for very high selectivity, ratio≥30-fold) | 
< 50 nM | 50 to 500 nM | 0.1 to 50 nM | > 500 nM | CON(C)C(=O)c1nn(CC2CC2)c2c1Cc1cn(C)nc1-c1ccc(F)cc1[C@@H](C)Oc1cc-2cnc1N [Example 34, N-methoxy-N-methyl-(R)-22-amino-3-(cyclopropylmethyl)-16-fluoro-10-methyl-19-methyl-20-oxa-3,4,10,11,23-pentaazapentacyclo[19.3.1.0^2,^6.0^8,^12.0^13,^18]pentacosa-1(24),2(6),4,8,11,13,15,17,21(25),22-decaene-5-carboxamide] | B (bin B for high selectivity, ratio≥10-fold but<30) | 
50 to 500 nM | ≥ 500 nM | 50 to 500 nM | > 500 nM | CC(=O)c1nn(CC2CC2)c2c1Cc1cn(C)nc1-c1ccc(F)cc1[C@@H](C)Oc1cc-2cnc1N [Example 16, 1-[(19R)-22-amino-3-(cyclopropylmethyl)-16-fluoro-10,19-dimethyl-20-oxa-3.4.10,11,23-pentaazapentacyclo[19.3.1.0^2,6.0^8,12.0^13,18]pentacosa-1(24),2(6),4,8,11.13,15,17,21(25),22-decaen-5-yl]ethan-1-one] | C (bin C for moderate selectivity, ratio≥1 but<10) | 
< 50 nM | ≥ 500 nM | 0.1 to 50 nM | > 500 nM | C[C@H]1Oc2cc(cnc2N)-c2c(c(C(=O)N(C)C)nn2CC2CC2)Oc2cccnc2-c2ccc(F)cc21 [Example 39, N,N-dimethyl-(R)-23-amino-3-(cyclopropylmethyl)-17-fluoro-20-methyl-7,21-dioxa-3,4,12,24-tetraazapentacyclo[20.3.1.0^2,6.0^8,13.0^14,19]hexacosa-1(25),2(6),4,8(13),9,11,14,16,18,22(26),23-undecaene-5-carboxamide] | A (bin A for very high selectivity, ratio≥30-fold) | 
< 50 nM | ≥ 500 nM | 50 to 500 nM | > 500 nM | C[C@H]1Oc2cc(cnc2N)-c2c(c(C(=O)N(C)C3CC3)nn2CC2CC2)Cc2cn(C)nc2-c2ccc(F)cc21 [Example 40, N-cyclopropyl-N-methyl-(R)-22-amino-3-(cyclopropylmethyl)-16-fluoro-10-methyl-19-methyl-20-oxa-3,4,10,11,23-pontaazapentacyclo[19.3.1.0^2,^6.0^8,^12.0^13,^18]pentacosa-1(24),2(6),4,8,11,13,15,17,21(25),22-decaene-5-carboxamide] | A (bin A for very high selectivity, ratio≥30-fold) | 
< 50 nM | ≥ 500 nM | 50 to 500 nM | > 500 nM | C[C@H]1Oc2cc(cnc2N)-c2c(c(C(=O)N(C)CC(F)(F)F)nn2CC2CC2)Cc2cn(C)nc2-c2ccc(F)cc21 [Example 36, (19R)-22-amino-3-(cyclopropylmethyl)-16-fluoro-N,10,19-trimethyl-N-(2,2,2-trifluoroethyl)-20-oxa-3,4,10,11,23-pentaazapentacyclo[19.3.1.0^2,^6.0^8,^12.0^13,^18]pentacosa-1(24),2(6),4,8,11,13,15,17,21(25),22-decaene-5-carboxamide] | A (bin A for very high selectivity, ratio≥30-fold) | 

Reference: patent US20250326769A1, “HETEROAROMATIC MACROCYCLIC ETHER CHEMOTHERAPEUTIC AGENTS” (Nuvalent, Inc., priority 2022, published 2025)
